Assay results reported in ChEMBL document CHEMBL3885861, “Open TG-GATES”.

Species: Rattus norvegicus
Assay: Open TG-GATES - Regimen: Single
Assay type: toxicity, organism-based, Sprague-Dawley
Set-up: regimen Single, gender Male, age 6 weeks
Conditions: in vivo, po, 0 mg/kg, route gavage, dose level Control; for APTT / Bas / Eos / Fbg / Hb / Ht / Lym / MCH / MCHC / MCV / Mono / Neu / PT / Plat / RBC / Ret / WBC: tissue Blood; for KIDNEY_L / KIDNEY_R / KIDNEY_TOTAL: tissue Kidney; for LIVER: tissue Liver; for A/G / ALP / ALT / AST / BUN / CRE / Ca / Cl / DBIL / GLC / IP / K / LDH / Na / PL / RALB / TBIL / TC / TG / TP / gamma-GTP: tissue Plasma

O=C(N[C@H](CO)[C@H](O)c1ccc([N+](=O)[O-])cc1)C(Cl)Cl [CHLORAMPHENICOL]
TERMINAL_BW (3 h): 223.3 g
APTT (3 h): 17.4 s
Bas (3 h): 0%
Eos (3 h): 1%
Fbg (3 h): 266.4 mg/dL
Hb (3 h): 13.2 g/dL
Ht (3 h): 38.7%
Lym (3 h): 79.8%
MCH (3 h): 21.8 pg
MCHC (3 h): 34.2%
MCV (3 h): 63.8 fL
Mono (3 h): 3.8%
Neu (3 h): 15.2%
PT (3 h): 14.3 s
Plat (3 h): 115.3 x10_4/uL
RBC (3 h): 607 x10_4/ul
Ret (3 h): 8.3%
WBC (3 h): 80.9 x10_2/uL
KIDNEY_L (3 h): 0.9 g
KIDNEY_R (3 h): 0.9 g
KIDNEY_TOTAL (3 h): 1.8 g
LIVER (3 h): 10.1 g
A/G (3 h): 0.9
ALP (3 h): 1566 IU/L
ALT (3 h): 41.4 IU/L
AST (3 h): 73.8 IU/L
BUN (3 h): 9.4 mg/dL
CRE (3 h): 0.2 mg/dL
Ca (3 h): 11.6 mg/dL
Cl (3 h): 105 meq/L
DBIL (3 h): 0.012 mg/dL
GLC (3 h): 184.2 mg/dL
IP (3 h): 8.6 mg/dL
K (3 h): 4.2 meq/L
LDH (3 h): 57.6 IU/L
Na (3 h): 139.8 meq/L
PL (3 h): 136.2 mg/dL
RALB (3 h): 2.5 g/dL
TBIL (3 h): 0.062 mg/dL
TC (3 h): 74.6 mg/dL
TG (3 h): 66.4 mg/dL
TP (3 h): 5.3 g/dL
gamma-GTP (3 h): 1.2 IU/L
TERMINAL_BW (6 h): 222.3 g
APTT (6 h): 17.1 s
Bas (6 h): 0%
Eos (6 h): 0.8%
Fbg (6 h): 262.8 mg/dL
Hb (6 h): 13.3 g/dL
Ht (6 h): 42.9%
Lym (6 h): 72.2%
MCH (6 h): 21.6 pg
MCHC (6 h): 30.9%
MCV (6 h): 70.1 fL
Mono (6 h): 2.6%
Neu (6 h): 24.2%
PT (6 h): 14.6 s
Plat (6 h): 109 x10_4/uL
RBC (6 h): 613.2 x10_4/ul
Ret (6 h): 8.2%
WBC (6 h): 60.2 x10_2/uL
KIDNEY_L (6 h): 0.9 g
KIDNEY_R (6 h): 0.9 g
KIDNEY_TOTAL (6 h): 1.8 g
LIVER (6 h): 9.4 g
A/G (6 h): 0.9
ALP (6 h): 1343.8 IU/L
ALT (6 h): 38.8 IU/L
AST (6 h): 71.2 IU/L
BUN (6 h): 8.8 mg/dL
CRE (6 h): 0.2 mg/dL
Ca (6 h): 11.6 mg/dL
Cl (6 h): 105.2 meq/L
DBIL (6 h): 0.014 mg/dL
GLC (6 h): 187.6 mg/dL
IP (6 h): 10.4 mg/dL
K (6 h): 4.2 meq/L
LDH (6 h): 62.8 IU/L
Na (6 h): 141.8 meq/L
PL (6 h): 136.2 mg/dL
RALB (6 h): 2.5 g/dL
TBIL (6 h): 0.064 mg/dL
TC (6 h): 73.6 mg/dL
TG (6 h): 72.2 mg/dL
TP (6 h): 5.5 g/dL
gamma-GTP (6 h): 1.4 IU/L
TERMINAL_BW (9 h): 222.7 g
APTT (9 h): 16.3 s
Bas (9 h): 0%
Eos (9 h): 1%
Fbg (9 h): 256.4 mg/dL
Hb (9 h): 13.5 g/dL
Ht (9 h): 42.9%
Lym (9 h): 71.2%
MCH (9 h): 21.5 pg
MCHC (9 h): 31.5%
MCV (9 h): 68.1 fL
Mono (9 h): 2.6%
Neu (9 h): 25%
PT (9 h): 14.5 s
Plat (9 h): 114.3 x10_4/uL
RBC (9 h): 630.2 x10_4/ul
Ret (9 h): 8.4%
WBC (9 h): 69.8 x10_2/uL
KIDNEY_L (9 h): 0.9 g
KIDNEY_R (9 h): 0.9 g
KIDNEY_TOTAL (9 h): 1.9 g
LIVER (9 h): 8.8 g
A/G (9 h): 0.9
ALP (9 h): 1165.4 IU/L
ALT (9 h): 36 IU/L
AST (9 h): 67.8 IU/L
BUN (9 h): 8.6 mg/dL
CRE (9 h): 0.2 mg/dL
Ca (9 h): 11.2 mg/dL
Cl (9 h): 105.4 meq/L
DBIL (9 h): 0.012 mg/dL
GLC (9 h): 192.6 mg/dL
IP (9 h): 10.4 mg/dL
K (9 h): 4.1 meq/L
LDH (9 h): 74.4 IU/L
Na (9 h): 140.6 meq/L
PL (9 h): 145.8 mg/dL
RALB (9 h): 2.5 g/dL
TBIL (9 h): 0.068 mg/dL
TC (9 h): 81.4 mg/dL
TG (9 h): 49.6 mg/dL
TP (9 h): 5.4 g/dL
gamma-GTP (9 h): 1 IU/L
TERMINAL_BW (24 h): 230.2 g
APTT (24 h): 16.1 s
Bas (24 h): 0%
Eos (24 h): 1%
Fbg (24 h): 264 mg/dL
Hb (24 h): 13 g/dL
Ht (24 h): 40.9%
Lym (24 h): 80.6%
MCH (24 h): 21.3 pg
MCHC (24 h): 31.9%
MCV (24 h): 66.6 fL
Mono (24 h): 2.8%
Neu (24 h): 15.2%
PT (24 h): 14.3 s
Plat (24 h): 120.8 x10_4/uL
RBC (24 h): 614.4 x10_4/ul
Ret (24 h): 7.6%
WBC (24 h): 87.8 x10_2/uL
KIDNEY_L (24 h): 1 g
KIDNEY_R (24 h): 1 g
KIDNEY_TOTAL (24 h): 2 g
LIVER (24 h): 11.2 g
A/G (24 h): 0.9
ALP (24 h): 1650.8 IU/L
ALT (24 h): 48.2 IU/L
AST (24 h): 77 IU/L
BUN (24 h): 15.4 mg/dL
CRE (24 h): 0.2 mg/dL
Ca (24 h): 11.7 mg/dL
Cl (24 h): 103.6 meq/L
DBIL (24 h): 0.012 mg/dL
GLC (24 h): 191.6 mg/dL
IP (24 h): 8.8 mg/dL
K (24 h): 4.1 meq/L
LDH (24 h): 88.8 IU/L
Na (24 h): 141.2 meq/L
PL (24 h): 155.2 mg/dL
RALB (24 h): 2.6 g/dL
TBIL (24 h): 0.056 mg/dL
TC (24 h): 86.8 mg/dL
TG (24 h): 72.6 mg/dL
TP (24 h): 5.6 g/dL
gamma-GTP (24 h): 1.2 IU/L
